Measurements from patent US12545673B2, “Imidazopyridine derivative and pharmaceutical composition comprising same as active ingredient” (TSD LIFE SCIENCES CO., LTD., priority 2019, dated 2026).
Read-outs that look alike come from different tables or passages of the source.

Legend:
[1] = test system: chronic myeloid leukemia cell line K562; assay: Cancer cell proliferation inhibitory activity evaluation 1 (CCK-8), K562; type: cell-based; settings: Homo sapiens, read-out: Cancer cell proliferation inhibitory activity K562
Protocol: (§1) In order to identify whether the compound has anticancer activity, the human breast cancer cell line MDA-MB-231, the colorectal cancer cell line HT-29, the acute myeloid leukemia cell line U937, and the chronic myeloid leukemia cell line K562 were used. The cell line was cultured using RPMI-1640 medium containing 10% fetal bovine serum. Welgene products were used as the medium, and hyclone products were used for fetal bovine serum, and 1% of antibiotics for cell culture from Gibco were used as the culture medium.

MLK3 = MLK3 (Homo sapiens (Human), UniProt Q16584); assay: Evaluation of inhibitory activity of enzyme units, MLK3 ([γ-33P]-ATP filter assay)
Sequence of MLK3 (Q16584 whole entry, looked up): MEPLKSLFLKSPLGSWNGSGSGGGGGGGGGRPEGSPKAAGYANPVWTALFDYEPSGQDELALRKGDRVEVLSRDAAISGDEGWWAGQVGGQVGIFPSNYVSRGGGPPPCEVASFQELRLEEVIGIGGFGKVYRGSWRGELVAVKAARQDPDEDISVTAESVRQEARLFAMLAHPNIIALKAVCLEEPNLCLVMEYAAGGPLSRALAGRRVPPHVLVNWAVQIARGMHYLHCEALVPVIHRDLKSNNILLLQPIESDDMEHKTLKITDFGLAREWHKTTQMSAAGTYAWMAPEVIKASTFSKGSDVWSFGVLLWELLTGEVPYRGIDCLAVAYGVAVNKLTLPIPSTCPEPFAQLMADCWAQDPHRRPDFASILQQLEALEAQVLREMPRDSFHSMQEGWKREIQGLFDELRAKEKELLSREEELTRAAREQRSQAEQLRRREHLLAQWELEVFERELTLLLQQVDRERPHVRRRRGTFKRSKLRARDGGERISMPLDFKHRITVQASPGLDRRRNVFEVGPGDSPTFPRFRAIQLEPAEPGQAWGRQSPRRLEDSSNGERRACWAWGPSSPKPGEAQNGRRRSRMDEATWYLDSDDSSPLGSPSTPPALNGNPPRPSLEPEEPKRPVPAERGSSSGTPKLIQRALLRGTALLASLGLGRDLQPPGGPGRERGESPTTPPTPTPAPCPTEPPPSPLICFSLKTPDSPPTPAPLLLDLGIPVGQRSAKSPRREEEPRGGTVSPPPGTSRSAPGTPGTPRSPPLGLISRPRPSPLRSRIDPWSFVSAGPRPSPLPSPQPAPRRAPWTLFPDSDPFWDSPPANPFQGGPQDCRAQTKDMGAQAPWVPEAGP

[2] = test system: acute myeloid leukemia cell line U937; assay: Cancer cell proliferation inhibitory activity evaluation 1 (CCK-8), U937; type: cell-based; settings: Homo sapiens, read-out: Cancer cell proliferation inhibitory activity U937
Protocol: as §1

[3] = test system: gastric cancer cell line AGS; assay: Cancer cell proliferation inhibitory activity evaluation 2 (CCK-8), AGS; type: cell-based; settings: Homo sapiens, read-out: Cancer cell proliferation inhibitory activity AGS
[4] = test system: human breast cancer cell line MDA-MB-231; assay: Cancer cell proliferation inhibitory activity evaluation 1 (CCK-8), MDA-MB-231; type: cell-based
Protocol: as §1

[5] = test system: acute myeloid leukemia cell line U937; assay: Cancer cell proliferation inhibitory activity evaluation 2 (CCK-8), U937; type: cell-based; settings: Homo sapiens, read-out: Cancer cell proliferation inhibitory activity U937
[6] = test system: acute lymphoblastic leukemia cell line Jurkat; assay: Cancer cell proliferation inhibitory activity evaluation 2 (CCK-8), Jurkat; type: cell-based; settings: Homo sapiens
[7] = test system: colorectal cancer cell line HT-29; assay: Cancer cell proliferation inhibitory activity evaluation 1 (CCK-8), HT-29; type: cell-based; settings: Homo sapiens, read-out: Cancer cell proliferation inhibitory activity HT29
Protocol: as §1

[8] = MDA-MB-231, 72 h, read-out: Cancer cell proliferation inhibitory activity MDAMB231
[9] = 72 h, read-out: Cancer cell proliferation inhibitory activity Jurkat
[10] = U-937, 10 μM, 72 hours, CCK-8 (Table 2)
[11] = MDA-MB-231, 10 μM, 72 hours, CCK-8, read-out: Cancer cell proliferation inhibitory activity MDAMB231
[12] = U-937, 10 μM, 72 hours, CCK-8 (Table 3)
[13] = 10 μM, 72 hours, CCK-8, read-out: Cancer cell proliferation inhibitory activity Jurkat

SMILES	inhibition at 10 µM ([1]; K562, 72 h) [%]	IC50 (MLK3; read-out: IC50(nM) MLK3) [nM]	inhibition at 10 µM ([2]; U-937, 72 h) [%]	inhibition at 10 µM ([3]; 72 h) [%]	inhibition at 10 µM [4, 8] [%]	inhibition at 10 µM ([5]; U-937, 72 h) [%]	inhibition at 10 µM [6, 9] [%]	inhibition at 10 µM ([7]; HT-29, 72 h) [%]	inhibition at 10 µM ([1]; K562, 10 μM, 72 hours, CCK-8) [%]	IC50 (MLK3) [nM]	inhibition at 10 µM [2, 10] [%]	inhibition at 10 µM ([3]; 10 μM, 72 hours, CCK-8) [%]	inhibition at 10 µM [4, 11] [%]	inhibition at 10 µM [5, 12] [%]	inhibition at 10 µM [6, 13] [%]	inhibition at 10 µM ([7]; HT-29, 10 μM, 72 hours, CCK-8) [%]
CCS(=O)(=O)N1CC[C@H](Nc2c(Br)cnc3[nH]c(-c4cc(C)n(-c5c(Cl)cccc5Cl)c4C)nc23)C1 [Example 13, (S)-6-bromo-2-(1-(2,6-dichlorophenyl)-2,5-dimethyl-1H-pyrrol-3-yl)-N-(1-(ethylsulfonyl)pyrrolidine-3-yl)-3H-imidazo[4,5-b]pyridine-7-amine]	10 to 50	7	> 50	> 50	10 to 50	10 to 50	> 50	10 to 50								
CCS(=O)(=O)N1CC[C@H](Nc2c(Br)cnc3[nH]c(-c4cc(C)n(-c5ccccc5Cl)c4C)nc23)C1 [Example 16, 6-bromo-2-(1-(2-chlorophenyl)-2,5-dimethyl-1H-pyrrol-3-yl)-N—((S)-1-(ethylsulfonyl)pyrrolidine-3-yl)-3H-imidazo[4,5-b]pyridine-7-amine]									> 50	11	> 50	10 to 50	10 to 50	< 10	10 to 50	10 to 50
Cc1ccc(NS(C)(=O)=O)cc1-n1c(C)cc(-c2nc3c(Nc4cccc(S(N)(=O)=O)c4)c(Br)cnc3[nH]2)c1C [Example 33, 3-((6-bromo-2-(2,5-dimethyl-1-(2-methyl-5-(methylsulfonamido)phenyl)-1H-pyrrol-3-yl)-3H-imidazo[4,5-b]pyridine-7-yl)amino)benzenesulfonamide]		38							< 10		10 to 50	10 to 50	10 to 50	< 10	10 to 50	< 10
CCS(=O)(=O)N1CC[C@H](Nc2c(Br)cnc3[nH]c(-c4cc(C)n(-c5ccc(Cl)c(Cl)c5)c4C)nc23)C1 [Example 15, (S)-6-bromo-2-(1-(3,4-dichlorophenyl)-2,5-dimethyl-1H-pyrrol-3-yl)-N-(1-(ethylsulfonyl)pyrrolidine-3-yl)-3H-imidazo[4,5-b]pyridine-7-amine]	10 to 50	34	10 to 50	10 to 50	> 50	10 to 50	< 10	< 10								
Cc1cc(-c2nc3c(Nc4cccc(S(N)(=O)=O)c4)c(Br)cnc3[nH]2)c(C)n1-c1cccc(N2CCOCC2)c1 [Example 37, 3-((6-bromo-2-(2,5-dimethyl-1-(3-morpholinophenyl)-1H-pyrrol-3-yl)-3H-imidazo[4,5-b]pyridine-7-yl)amino)benzenesulfonamide]		47							< 10		10 to 50	10 to 50	> 50	10 to 50	10 to 50	> 50
Cc1cc(-c2nc3c(Nc4cccc(S(N)(=O)=O)c4)c(Br)cnc3[nH]2)c(C)n1-c1cc(Cl)ccc1Cl [Example 35, 3-((6-bromo-2-(1-(2,5-dichlorophenyl)-2,5-dimethyl-1H-pyrrol-3-yl)-3H-imidazo[4,5-b]pyridine-7-yl)amino)benzenesulfonamide]									< 10	46	10 to 50	10 to 50	10 to 50	10 to 50	10 to 50	> 50
Cc1cc(-c2nc3c(Nc4cccc(S(N)(=O)=O)c4)c(Br)cnc3[nH]2)c(C)n1-c1c(Cl)cccc1Cl [Example 26, 3-((6-bromo-2-(1-(2,6-dichlorophenyl)-2,5-dimethyl-1H-pyrrol-3-yl)-3H-imidazo[4,5-b]pyridine-7-yl)amino)benzenesulfonamide]		19							< 10		10 to 50	10 to 50	10 to 50	10 to 50	10 to 50	10 to 50
CCS(=O)(=O)N1CC[C@H](Nc2c(Br)cnc3[nH]c(-c4cc(C)n(-c5ccc(N6CCOCC6)cc5)c4C)nc23)C1 [Example 1, (S)-6-bromo-2-(2,5-dimethyl-1-(4-morpholinophenyl)-1H-pyrrol-3-yl)-N-(1-(ethylsulfonyl)pyrrolidine-3-yl)-3H-imidazo[4,5-b]pyridine-7-amine]									< 10	4	10 to 50	10 to 50	10 to 50	10 to 50	10 to 50	10 to 50
Cc1cc(-c2nc3ncc(Br)c(Nc4cccc(S(N)(=O)=O)c4)c3[nH]2)c(C)n1-c1cccc(OCCN2CCOCC2)c1 [Example 38, 3-((6-bromo-2-(2,5-dimethyl-1-(3-(2-morpholinoethoxy)phenyl)-1H-pyrrol-3-yl)-1H-imidazo[4,5-b]pyridine-7-yl)amino)benzenesulfonamide]		52							> 50		> 50	> 50	10 to 50	10 to 50	> 50	> 50
Cc1cc(-c2nc3ncc(Br)c(Nc4cccc(S(N)(=O)=O)c4)c3[nH]2)c(C)n1-c1ccc(OCCN2CCOCC2)cc1 [Example 39, 3-((6-bromo-2-(2,5-dimethyl-1-(4-(2-morpholinoethoxy)phenyl)-1H-pyrrol-3-yl)-1H-imidazo[4,5-b]pyridine-7-yl)amino)benzenesulfonamide]		72							10 to 50		< 10	> 50	10 to 50	10 to 50	> 50	10 to 50
Cc1cc(-c2nc3c(Nc4cccc(S(N)(=O)=O)c4)c(Br)cnc3[nH]2)c(C)n1-c1ccccc1Cl [Example 31, 3-((6-bromo-2-(1-(2-chlorophenyl)-2,5-dimethyl-1H-pyrrol-3-yl)-3H-imidazo[4,5-b]pyridine-7-yl)amino)benzenesulfonamide]		35							10 to 50		10 to 50	10 to 50	< 10	10 to 50	10 to 50	> 50
Cc1cc(-c2nc3c(Nc4cccc(S(N)(=O)=O)c4)c(Br)cnc3[nH]2)c(C)n1-c1ccc(N2CCOCC2)cc1 [Example 40, 3-((6-bromo-2-(2,5-dimethyl-1-(4-morpholinophenyl)-1H-pyrrol-3-yl)-3H-imidazo[4,5-b]pyridine-7-yl)amino)benzenesulfonamide]		68							10 to 50		> 50	10 to 50	10 to 50	10 to 50	> 50	> 50
